For one series, the target named is T1, native calpain I (Homo sapiens, UniProt P07384).
T1 construct: Native and recombinant enzymatically active calpain I were compared; from tissue; host or cells: human erythrocytes (red blood cells)
T1 sequence (P07384 2-714): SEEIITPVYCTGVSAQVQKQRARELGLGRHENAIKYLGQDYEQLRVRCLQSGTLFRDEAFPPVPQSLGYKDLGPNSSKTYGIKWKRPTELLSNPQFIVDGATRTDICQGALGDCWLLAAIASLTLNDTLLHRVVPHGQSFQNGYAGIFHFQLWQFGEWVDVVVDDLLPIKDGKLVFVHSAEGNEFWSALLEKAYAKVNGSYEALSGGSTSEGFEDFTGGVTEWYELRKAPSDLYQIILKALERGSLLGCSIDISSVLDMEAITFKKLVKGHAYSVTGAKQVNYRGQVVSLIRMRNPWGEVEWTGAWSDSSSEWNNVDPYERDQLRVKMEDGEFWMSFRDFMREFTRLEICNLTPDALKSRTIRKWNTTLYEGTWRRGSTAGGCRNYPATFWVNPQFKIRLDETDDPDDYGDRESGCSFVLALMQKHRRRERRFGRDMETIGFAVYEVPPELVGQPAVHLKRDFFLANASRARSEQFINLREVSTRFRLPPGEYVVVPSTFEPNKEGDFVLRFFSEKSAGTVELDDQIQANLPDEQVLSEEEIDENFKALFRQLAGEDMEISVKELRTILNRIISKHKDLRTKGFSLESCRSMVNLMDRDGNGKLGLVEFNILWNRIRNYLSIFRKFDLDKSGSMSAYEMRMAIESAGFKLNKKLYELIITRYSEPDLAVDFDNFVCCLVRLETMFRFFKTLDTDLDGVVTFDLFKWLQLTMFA
T1 sequence (P04632 1-268 partner): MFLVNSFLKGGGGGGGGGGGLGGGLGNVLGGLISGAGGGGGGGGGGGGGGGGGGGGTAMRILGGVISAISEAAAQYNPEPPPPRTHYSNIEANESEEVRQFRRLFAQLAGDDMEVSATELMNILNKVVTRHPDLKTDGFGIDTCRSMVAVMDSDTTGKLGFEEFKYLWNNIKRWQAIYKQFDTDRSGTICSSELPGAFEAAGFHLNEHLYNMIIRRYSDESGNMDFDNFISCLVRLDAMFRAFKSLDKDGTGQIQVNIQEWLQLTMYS
Kind of series: Inhibitor profile: inhibition of Succ-Leu-Tyr-MNA hydrolysis by native calpain I. It is filed as biochemical. The settings on record: for difference in IC50 values with respect to the known calpain inhibitors / inhibition of activity: native enzyme. The method, then: (§1) To evaluate inhibitor sensitivities, stocks (40 times concentrated) of each inhibitor to be tested were prepared in 100% anhydrous DMSO and 5 μl of each inhibitor preparation were aliquoted into each of three wells of a 96 well plate. Dilutions of each enzyme preparation were made into assay buffer (i.e., 50 mM Tris, 50 mM NaCl, 1 mM EDTA, 1 mM EGTA, and 5 mM β-mercaptoethanol, pH 7.5 including 0.2 mM Succ-Leu-Tyr-MNA) and 175 μl of each dilution aliquoted into the same wells containing the independent inhibitor stocks as well as to positive control wells containing 5 μl DMSO, but no inhibitor. To start the reaction, 20 μl of 50 mM CaCl2 in assay buffer was added to all wells of the plate, excepting three, which were used as background signal baseline controls. Substrate hydrolysis was monitored every 5 minutes for a total of 30 minutes. […] The rate of hydrolysis was determined as the change in fluorescence units per the 10 minute time period between 5 and 15 minutes. At each inhibitor concentration tested, the percent inhibition was determined as the percent decrease in the rate of substrate hydrolysis in the presence of inhibitor versus the rate in its absence. […] Prototypic inhibitors of serine (PMSF) and aspartic proteases (pepstatin A) were also included in this determination.

Series [1] concerns the target T2, recombinant human calpain I (Homo sapiens, UniProt P07384).
T2 construct: the 2153 bp fragment containing the entire human 80 kDa calpain I cDNA; made in house; host or cells: Spodoptera frugiperda Sf21 cells, recombinant baculovirus (AcNPV-hCANPI-2-5, or coinfection with AcNPV-hCANP30-5 and AcNPV-hCANPI80-5)
T2 sequence (P07384 2-714): T1 sequence (P07384 2-714)
T2 sequence (P04632 1-268 partner): T1 sequence (P04632 1-268 partner)
Kind of series: Inhibitor profile: inhibition of Succ-Leu-Tyr-MNA hydrolysis by recombinant calpain I. It is filed as biochemical. Conditions: for difference in IC50 values with respect to the known calpain inhibitors / inhibition of activity: recombinant enzyme. The method, then:
as §1

Another series has as its system cells. Conditions: cited from earlier work.
Setting [2] is: Native calpain, 0.2 mM Succ-Leu-Tyr-MNA, rate between 5 and 15 minutes, read-out: IC50.
Setting [3] is: Recombinant calpain, 0.2 mM Succ-Leu-Tyr-MNA, rate between 5 and 15 minutes, read-out: IC50.

Where two headings read alike, the source gives them in different places. Where a SMILES comes first, the peptide text is derived from it. [ ]: non-standard residue; d: D form. The star is where a group is joined. Sta = CC(C)C[C@H](N)[C@@H](O)CC(=O)O; Isovaleryl = CC(C)CC(=O)*

For `CC(C)CC(=O)N[C@H](C(=O)N[C@H](C(=O)N[C@@H](CC(C)C)[C@@H](O)CC(=O)N[C@@H](C)C(=O)N[C@@H](CC(C)C)[C@@H](O)CC(=O)O)C(C)C)C(C)C` [Pepstatin A] (Isovaleryl-VV[Sta]A[Sta]-OH), the IC50 (on native calpain I (setting [2]); in series [1] (setting [3])) was over 10 µM in each case. Moreover, the “difference in IC50 values with respect to the known calpain inhibitors” value (“difference … to the known calpain inhibitors” below) (at native calpain I; in series [1]) was 5-6 fold order of magnitude in each case. Further, the “inhibition of activity” value (against native calpain I; in series [1]) was “insignificant inhibition” each time.
For `O=S(=O)(F)Cc1ccccc1` [PMSF, phenylmethylsulfonyl fluoride], at native calpain I, the IC50 was over 1000 µM, the “difference … to the known calpain inhibitors” value is 5-6 fold order of magnitude and the “inhibition of activity” value is given as “insignificant inhibition”. For the same molecule, in series [1], the IC50 is over 1000 µM, the “difference … to the known calpain inhibitors” value was 5-6 fold order of magnitude and the “inhibition of activity” value is listed as “insignificant inhibition”.
For the molecule calpastatin, the “uptake by cells” value in the series on cells is “not readily taken up by cells”.
`CC(C)C[C@H](NC(=O)OCc1ccccc1)C(=O)N[C@@H](CC(C)C)C(=O)N[C@@H](Cc1ccccc1)C(=O)C[S+](C)C` [Z--Leu--Leu--Phe--CH2 S(+)Me2 Br(-), Z-Leu-Leu-Phe-CH2 S(+)Me2 Br(-)]: the results for the IC50 (on native calpain I (setting [2]); in series [1] (setting [3])) were 0.014 µM and 0.008 µM, respectively.
The matching figures for `CCCC[C@@H](C=O)NC(=O)[C@H](CC(C)C)NC(=O)OCc1ccccc1` [Z--Leu--Nle--H, Z-Leu-Nle-H]: 0.014 µM and 0.01 µM.
Turning to `CCNC(=O)C(=O)[C@H](Cc1ccccc1)NC(=O)[C@H](CC(C)C)NC(=O)OCc1ccccc1` [Z--Leu--Phe--CONHEt, Z-Leu-Phe-CONHEt], the IC50 against native calpain I came out at 0.056 µM; in series [1], 0.034 µM.
